Experimental data reported in ChEMBL document CHEMBL5107975, “HIV nucleoside reverse transcriptase inhibitors” (Eur J Med Chem, 2022).

Legend:
[1] = system: Human immunodeficiency virus 1; experiment: Antiviral activity against HIV-1; type: functional, organism-based
[2] = Oral bioavailability in human relative to control; type: ADME, organism-based; conditions: in vivo
[3] = Elimination half life in human administered po; type: ADME; conditions: read-out: LambdaZ (converted)
[4] = Drug elimination in human urine assessed as unchanged drug administered po relative to control; type: ADME, organism-based; conditions: read-out: Drug excretion

Row | Structure (SMILES) | EC50 [1] | bioavailability [2] | half-life [3] | dose excreted [4]
1 | Nc1ccn([C@@H]2CS[C@H](CO)O2)c(=O)n1 [LAMIVUDINE] | 2 nM | – | – | –
2 | C=C1[C@H](CO)[C@@H](O)C[C@@H]1n1cnc2c(=O)[nH]c(N)nc21.O [ENTECAVIR] | > 1000 nM | 100% | 128 h | 62%
